Test results as given in patent publication US11629192B2, “Methods and pharmaceutical compositions for the treatment of diseases mediated by the NRP-1/OBR complex signaling pathway” (INSERM (Institut National de la Sante et de la Recherche …, priority 2014, dated 2023).
Entries after “also recorded” stand apart in the source; their conditions may differ.

Columns and labels:
[1] = test system: P-NRP-1; experiment: NRP-1 (P-NRP-1) and OBR phosphorylation in MDA-MB-231, immunostaining / coimmunoprecipitation; type: cell-based, human; settings: for NRP-1 and OBR phosphorylation: inhibition of CK2 by chemical compounds
Description: Beside the modulation of the NRP-1/OBR complex formation by Leptin and OBR phosphorylation, we postulated a possible phosphorylation of NRP-1 that can regulate the translocation of the complex to the nucleus. Two putative phosphorylation sites of NRP-1 have been reported with no more investigation. The first one at the extracellular B domain as reported by Shintani et al in 2009 with no antibody available and the second one at the Threonine 916 located in the cytoplasmic domain as it was reported by Kyle et al in 2011. Since a specific antibody against P-NRP-1 at the T916 was available, we investigated by coimmunoprecipitation the detection of P-NRP-1 in MDA-MB-231 after serum starvation and stimulation by Leptin (10 nM). […] To confirm this phosphorylation state, we investigated the possible implication of a Serine/threonine Kinase CK2 using one of its first chemical inhibitor (DRB). In serum starved condition, P-NRP-1 was detected as polarized spot in the cytoplasm and the nucleus of MDA-MB-231. […] The inhibition was specific since, in stimulated condition combined with DMSO at the same dilution of DRB, we were able to observe a diffuse nuclear P-NRP-1 staining.

[2] = test system: OBR and STAT3 phosphorylation; experiment: OBR and STAT3 phosphorylation in cytoplasmic and nuclear fractions; type: cell-based
Description: Since both NRP-1/OBR complex formation and NRP-1 phosphorylation were abolished by CK2 inhibition, we supposed that OBR signaling pathway could be also affected by CK2 inhibition.

[3] = test system: NRP-1/OBR complex; experiment: NRP-1/OBR complex detection by Duolink Proximity Ligation Assay in MDA-MB-231 cells; type: cell-based, human; settings: for formation and nuclear translocation of the NRP-1/OBR complex: MDA-MB-231 stimulated with Leptin (10 nM), CK2 inhibitor treatment
Description: FIG. 2A-E. NRP-1/OBR complex is dependent of the activity of Protein-kinase CK2: NRP-1 and OBR are both a substrate of the holoenzyme CK2: In vitro phosphorylation of the recombinant full length NRP-1 (A) and the length OBR (B) indicate that the CK2β subunit is indispensable for the CK2 activity. C. Detection of the NRP-1 and CK2β subunit interaction: By using the PLA technology, the in vitro data showing the implication of CK2β subunit in the phosphorylation of NRP-1 by CK2 are in part confirmed in MDA-MB231 cells by the detection of CK2β interaction with NRP-1 as indicated by the duolink (white dot). […] E. inhibition of the NRP-1/OBR by the simultaneous CK2α and CK2α′ expression silencing using siRNA that confirms the CK2 implication In the NRP-1/OBR complex formation and nuclear localization.
To confirm a direct association of NRP-1 and Leptin in breast cancer cell migration, we investigated the NRP-1 and OBR interaction by using proximity ligation assay technology (Duolink) in MDA-MB-231 and in T47D-NRP-1. Since OBR is a member of the class I cytokine receptor family, we asked the question if the formation of the complex NRP-1/OBR can or not be modulated by Leptin. This question was investigated endogenously in MDA-MB-231 or by transient transfection of T47D either by NRP-1 or by NRP-1/OBR or OBR alone. After 24 h of transfection, cells were serum starved for 16 h then stimulated with Leptin (10 nM). After 3 h, the stimulation was stopped by removing the medium, cells was first washed then fixed and NRP-1/OBR complex formation was analyzed by Duolink in situ Proximity Ligation Assay (PLA) and by confocal microscopy detection. Co-localization was analyzed using JACoP (ImageJ; National Institutes of Health, Bethesda, Md.) software. Co-localization between molecules was indicated by a positive Pearson coefficient (r). First, the expression of NRP-1 in transfected T47D was confirmed by RT-PCR. NRP-1 forms a complex with endogenous OBR as it is shown by the Duolink detection as red dot in cells transfected with pcDNA3-NRP-1. The Duolink signal increased in the T47D co-transfected with NRP-1 and OBR. The Duolink signals in T47D transfected with either the empty vector pcDNA3 or with the OBR expressing vector were similar. The same results are observed in MDA-MB-231. […] By using subcellular protein fractionation kit, NRP-1 and OBR localization in cytoplasmic (C), membrane (M), in the total nuclear extract (N) or in soluble nuclear (SN) and chromatin bound fractions (CB) was analyzed by western blotting either in total lysate or after coimmunoprecipitation. The purity of fraction was assessed by the detection of specific proteins of each fraction such as Hsp90 for the C fraction, SP1 and HDAC2 for the SN and CB fractions and specifically the Calreticulin for endoplasmic reticulum (ER) in order to detect any contamination by the ER membrane fraction in the nuclear fractions. As suspected, OBR was coimmunoprecipitated with NRP-1 in the cytoplasmic (C) and in the nuclear fraction (N) of MDA-MB-231 but not in T47D. As well as Phosphorylated OBR (P-OBR), NRP-1 was detected in cytoplasmic fraction and in nuclear fractions SN and CB of 16 h serum starved MDA-MB-231 and stimulated with 10 nM of Leptin during 3 h at 37° C. The P-OBR and NRP-1 coimmunoprecipitated in the nuclear fractions, increasing with Leptin stimulation as observed by confocal microscopy.
As attempted, NRP-1/OBR complex was detected by confocal microscopy after by Duolink in situ Proximity Ligation Assay (PLA) in MDA-MB-231 stimulated with Leptin (10 nM). This detection was also observed in MDA-MB-231-shGFP but very less in MDA-MB-231-shNRP-1 confirming NRP-1 association with OBR.

[4] = test system: MDA-MB-231 cells; experiment: MDA-MB-231 cell migration / transmigration through insert; type: cell-based, human; settings: 10 μg/ml of Bevacizumab
Description: (§1) FIG. 5. NRP-1, OBR and leptin interactions confirmation using a Bio-Layer Interferometry (BLI) technology (fortebio.com/bli-technology.html): A-Leptin (OB) interaction to OBR is used as a positive control. Human neuropilin-1 (hNRP-1) interact with human OBR with a high affinity and specifically with human leptin (hOB) but not with murine leptin (mOB). VEGF165 binding to hNRP-1 is used as a positive control. B-Leptin and Avastin association increases MDA-MB231 cells transmigration through […] pore Insert. Avastin treatment may prevent a negative feedback control by VEGF of the pro-angiogenic signaling pathway of Leptin. VEGF binds to OBR which confirms our hypothesis that should be more investigated.
First MBA-MB-231 and T47D breast cancer cells line were selected for their high and undetectable NRP-1 expression respectively and the expression of Leptin receptor (OBR). In order to investigate NRP-1 and Leptin association in breast cancer cell line migration, we proceeded to NRP-1 expression silencing in MDA-MB-231 using either siRNA or shRNA approaches or NRP-1 overexpression in T47D. […] In contrast Leptin induced MDA-MB-231 migration that was decreased in siNRP-1 conditions. The in vitro data were confirmed in vivo by MDA-MB-231 and T47D xenografts in Nude mice. Modulation of NRP-1 expression either by shRNA silencing in MDA-MB-231 or by overexpression in T47D induced an increase of proliferation and a decrease of lymph node infiltration by MDA-MB-231-shNRP-1 and a decrease of proliferation and an increase of lymph node infiltration by T47D-NRP-1-RFP in mice treated with Leptin.
Leptin induced in vitro MDA-MB-231 migration that was decreased by NRP-1 repression using siRNA. Lel Xu et al have reported a direct evidence of NRP-1 up-regulation in tumors treated by anti-VEGF (Bevacizumab). […] This observation can be a first explanation of breast cancer therapy failure (increase of Progression survival while decreasing overall survival) by Bevacizumad and that was revoked by the FDA (Food and Drugs Administration, US).

[5] = test system: NRP-1/OBR complex; experiment: NRP-1/OBR complex by PLA in skin fibroblast of healthy donor and anorexic patient; type: cell-based, human; settings: for NRP-1/OBR complex formation: skin fibroblasts of healthy donor and anorexic patient, treated during 4 hours
Experimental: FIG. 3A-B. NRP1/OBR complex formation inhibited by two alosteric inhibitors of Protein-kinase CK2 in skin fibroblast of healthy donor (A) and anorexic patient (B). The NRP-1/OBR complex (Red dot) is detected by de Proximity Ligation assay technology (PLA or Ouolink). Cells were grown in DMEM plus 20% of fetal bovine serum+Sodium pyruvate+LGiutamate and penicillin and streptomycin. Cells were treated or not with D3.1 or M4 CK2 inhibitor during 4 hours. Cells were washed with PBS1X and fixed with iced acetone and rehydrated with PBS before blockage and staining with a Goat ant-Human leptin and Rabbit anti-Neuropilin-1 and Mouse anti-Leptin receptor OBR. Leptin was detected using a donkey and Goat Alexa 488 (Green) and NRP-1 and OBR with anti-Rabbit-PLA minus and antimouse-PLA plus as described in the link indicated above. The NRP-1/OBR complex is inhibited by D3.1 and M4 treatment.

[6] = biological target: Human neuropilin-1 (hNRP-1) (Homo sapiens, UniProt O14786); experiment: Bio-Layer Interferometry (BLI) interaction with hNRP-1; type: binding
Description: as §1

Molecule: Brc1c(Br)c(Br)c2[nH]nnc2c1Br [TBB, 4,5,6,7-tetrabromobenzotriazole]
- NRP-1 and OBR phosphorylation [1]: prevented
- Leptin induced OBR and STAT3 phosphorylation increase, effect of inhibitor [2]: inhibited by TBB treatment in a dose dependent manner
- formation and nuclear translocation of the NRP-1/OBR complex [3]: prevented; also recorded: decrease of NRP-1/OBR complex formation

Molecule: Bevacizumab: anti-VEGF antibody (rhuMab VEGF, Avastin) [reference compound]
- MDA-MB-231 migration [4]: induced

Molecule: OC[C@H]1O[C@@H](n2cnc3cc(Cl)c(Cl)cc32)[C@H](O)[C@@H]1O [DRB, 5,6-dichloro-1-P-D-ribofuranosylbenzimidazole]
- P-NRP-1 staining (diffuse nuclear staining and polarized spot) ([1]; Leptin-stimulated (10 nM) MDA-MB-231, DRB treatment (5004)): inhibition of the diffuse nuclear P-NRP-1 staining but also to the decrease of P-NRP-1 polarized spot
- NRP-1 and OBR phosphorylation [1]: prevented
- formation and nuclear translocation of the NRP-1/OBR complex [3]: prevented
- formation and nuclear translocation of the NRP-1/OBR complex ([3]; listed as DBB): decrease of NRP-1/OBR complex formation

Molecule: O=C(O)c1cccc(Nc2nc(-c3cccc([N+](=O)[O-])c3)cs2)c1 [D3.1]
- NRP-1/OBR complex formation [5]: inhibited
- efficiency of NRP-1/OBR complex inhibition, D3.1 compared with M4 ([5]; skin fibroblasts, 4 hours): seems more efficient

Molecule: O=C(O)c1ccc2c(c1)nc(Nc1cccc(Cl)c1)c1ccncc12 [CX4945]
- NRP-1 and OBR phosphorylation [1]: prevented
- NRP-1/OBR complex detection by PLA and its nuclear localization ([3]; MDA-MB231, CX4945 (504) during 4 h, leptin stimulation (10 nM)): decrease in NRP-1/OBR complex detection by PLA (red dot) and its nuclear localization
- formation and nuclear translocation of the NRP-1/OBR complex [3]: prevented; also recorded: the same results obtained with TBB and DRB inhibitors

Molecule: O=[N+]([O-])c1ccc2c(/N=N/c3c(O)ccc4ccccc34)c(O)cc(S(=O)(=O)O)c2c1 [M4, reference compound]
- NRP-1/OBR complex formation [5]: inhibited

Molecule: CCC(=C/[C@H](C)C/C=C/C(C)=C/[C@@H](C)C(=O)[C@@H](C)[C@H](O)[C@@H](C)C/C(C)=C/C(=O)O)/C=C/[C@@H]1OC(=O)C=C[C@@H]1C [leptomycin B]
- NRP-1/OBR complex detection by Duolink in the nucleus ([3]; MDA-MB-231 co-treated with Leptin and leptomycin B vs Leptin alone): increased

B1: mOB: murine leptin (protein, UniProt P41160 22-167, looked up)
Leptin: VPIQKVQDDTKTLIKTIVTRINDISHTQSVSAKQRVTGLDFIPGLHPILSLSKMDQTLAVYQQVLTSLPSQNVLQIANDLENLRDLLHLLAFSKSCSLPQTSGLQKPESLDGVLEASLYSTEVVALSRLQGSLQDILQQLDVSPEC
- interaction with hNRP-1 [6]: not
